Reference: ChEMBL document CHEMBL4311942, “Design of Trp-Rich Dodecapeptides with Broad-Spectrum Antimicrobial Potency and Membrane-Disruptive Mechanism” (J Med Chem, 2019)
≈ marks a conversion by molar mass, not a printed value. Calls of active or inactive are those of the source. The rule behind the calls is not given here. Where a SMILES comes first, the peptide text is derived from it.

Key:
Escherichia coli [1] = test: Antibacterial activity against Escherichia coli ATCC 25922 in presence of MgCl2 by broth microdilution method; type: functional
Staphylococcus aureus [2] = test: Antibacterial activity against Staphylococcus aureus ATCC 29213 in presence of NaBH4 by broth microdilution method; type: functional
Escherichia coli [3] = test: Antibacterial activity against Escherichia coli ATCC 25922 in presence of 50% serum by broth microdilution method; type: functional
Escherichia coli [4] = test: Antibacterial activity against Escherichia coli UB1005 incubated for 18 to 24 hrs by broth microdilution method; type: functional
Escherichia coli [5] = test: Antibacterial activity against Escherichia coli ATCC 25922 in presence of 25% serum by broth microdilution method; type: functional
Staphylococcus aureus [6] = test: Antibacterial activity against Staphylococcus aureus ATCC 29213 in presence of ZnCl2 by broth microdilution method; type: functional
Escherichia coli [7] = test: Antibacterial activity against Escherichia coli ATCC 25922 in presence of ZnCl2 by broth microdilution method; type: functional
Staphylococcus aureus [8] = test: Antibacterial activity against Staphylococcus aureus ATCC 29213 in presence of MgCl2 by broth microdilution method; type: functional
Erythrocyte = test: Haemolytic activity in human erythrocytes assessed as lowest concentration causing 5% hemolysis after 1 hr; type: ADME, cell-based
Staphylococcus aureus [9] = test: Antibacterial activity against Staphylococcus aureus ATCC 29213 in presence of 50% serum by broth microdilution method; type: functional
Staphylococcus aureus [10] = test: Antibacterial activity against Staphylococcus aureus ATCC 29213 in presence of NaCl by broth microdilution method; type: functional
Escherichia coli [11] = test: Antibacterial activity against Escherichia coli ATCC 25922 incubated for 2 hrs in presence of sodium phosphate buffer at pH 4 by broth microdilution method; type: functional; conditions: ATCC 25922, 2 h
[12] = tested on: Staphylococcus epidermidis; test: Antibacterial activity against Staphylococcus epidermidis ATCC 12228 incubated for 18 to 24 hrs by broth microdilution method; type: functional
Staphylococcus aureus [13] = test: Antibacterial activity against Staphylococcus aureus ATCC 29213 using preheated compound at 100 degreeC for 1 hr by broth microdilution method; type: functional; conditions: ATCC 29213, 1 h
Escherichia coli [14] = test: Antibacterial activity against Escherichia coli ATCC 25922 incubated for 2 hrs in presence of sodium phosphate buffer at pH 12 by broth microdilution method; type: functional; conditions: ATCC 25922, 2 h
Salmonella typhimurium = test: Antibacterial activity against Salmonella enterica serovar typhimurium C77-31 incubated for 18 to 24 hrs by broth microdilution method; type: functional, Salmonella enterica subsp. enterica serovar Typhimurium
Staphylococcus aureus [15] = test: Antibacterial activity against Staphylococcus aureus ATCC 29213 in presence of NH4Cl by broth microdilution method; type: functional
Staphylococcus aureus [16] = test: Antibacterial activity against Staphylococcus aureus ATCC 25923 incubated for 18 to 24 hrs by broth microdilution method; type: functional
Staphylococcus aureus [17] = test: Antibacterial activity against Staphylococcus aureus ATCC 29213 in presence of H202 by broth microdilution method; type: functional
Staphylococcus aureus [18] = test: Antibacterial activity against Staphylococcus aureus ATCC 29213 incubated for 2 hrs in presence of sodium phosphate buffer at pH 4 by broth microdilution method; type: functional; conditions: ATCC 29213, 2 h
Staphylococcus aureus [19] = test: Antibacterial activity against Staphylococcus aureus ATCC 29213 in presence of KCl by broth microdilution method; type: functional
Staphylococcus aureus [20] = test: Antibacterial activity against Staphylococcus aureus ATCC 29213 in presence of 25% serum by broth microdilution method; type: functional
Staphylococcus aureus [21] = test: Antibacterial activity against Staphylococcus aureus ATCC 29213 in presence of 12.5% serum by broth microdilution method; type: functional
Escherichia coli [22] = test: Antibacterial activity against Escherichia coli ATCC 25922 incubated for 18 to 24 hrs by broth microdilution method; type: functional
Escherichia coli [23] = test: Antibacterial activity against Escherichia coli ATCC 25922 in presence of NH4Cl by broth microdilution method; type: functional
Escherichia coli [24] = test: Antibacterial activity against Escherichia coli ATCC 25922 in presence of CaCl2 by broth microdilution method; type: functional
Staphylococcus aureus [25] = test: Antibacterial activity against Staphylococcus aureus ATCC 29213 incubated for 2 hrs in presence of sodium phosphate buffer at pH 12 by broth microdilution method; type: functional; conditions: ATCC 29213, 2 h
Escherichia coli [26] = test: Antibacterial activity against Escherichia coli ATCC 25922 in presence of KCl by broth microdilution method; type: functional
Escherichia coli [27] = test: Antibacterial activity against Escherichia coli ATCC 25922 in presence of FeCl3 by broth microdilution method; type: functional
Staphylococcus aureus [28] = test: Antibacterial activity against Staphylococcus aureus ATCC 29213 incubated for 18 to 24 hrs by broth microdilution method; type: functional
Escherichia coli [29] = test: Antibacterial activity against Escherichia coli ATCC 25922 incubated for 2 hrs in presence of sodium phosphate buffer at pH 10 by broth microdilution method; type: functional; conditions: ATCC 25922, 2 h
Escherichia coli [30] = test: Antibacterial activity against Escherichia coli ATCC 25922 using preheated compound at 100 degreeC for 1 hr by broth microdilution method; type: functional; conditions: ATCC 25922, 1 h
[31] = Therapeutic index, ratio of MHC for human RBC to geometric mean of peptide MIC for Escherichia coli ATCC 25922; type: toxicity; conditions: pooled result: one value given for 6 cell lines, strains, targets or settings, read-out: TI
Staphylococcus aureus [32] = test: Antibacterial activity against Staphylococcus aureus ATCC 29213 incubated for 2 hrs in presence of sodium phosphate buffer at pH 2 by broth microdilution method; type: functional; conditions: ATCC 29213, 2 h
Staphylococcus aureus [33] = test: Antibacterial activity against Staphylococcus aureus ATCC 29213 incubated for 2 hrs in presence of sodium phosphate buffer at pH 10 by broth microdilution method; type: functional; conditions: ATCC 29213, 2 h
[34] = Cytotoxicity against mouse RAW264.7 cells assessed as cell survival at <= 32 uM after 24 hrs by MTT assay relative to control; type: cell-based; conditions: RAW264.7 cells, up to 32 µM, read-out: Activity
Escherichia coli [35] = test: Antibacterial activity against Escherichia coli ATCC 25922 in presence of NaBH4 by broth microdilution method; type: functional
Escherichia coli [36] = test: Antibacterial activity against Escherichia coli ATCC 25922 in presence of NaCl by broth microdilution method; type: functional
Escherichia coli [37] = test: Antibacterial activity against Escherichia coli ATCC 25922 incubated for 2 hrs in presence of sodium phosphate buffer at pH 2 by broth microdilution method; type: functional; conditions: ATCC 25922, 2 h
Staphylococcus aureus [38] = test: Antibacterial activity against Staphylococcus aureus ATCC 29213 in presence of CaCl2 by broth microdilution method; type: functional
Escherichia coli [39] = test: Antibacterial activity against Escherichia coli ATCC 25922 in presence of 12.5% serum by broth microdilution method; type: functional
Staphylococcus aureus [40] = test: Antibacterial activity against Staphylococcus aureus ATCC 29213 in presence of FeCl3 by broth microdilution method; type: functional
Escherichia coli [41] = test: Antibacterial activity against Escherichia coli ATCC 25922 in presence of H202 by broth microdilution method; type: functional
Acinetobacter baumannii [42] = test: Antibacterial activity against Acinetobacter baumannii AB1902 clinical isolate incubated for 18 to 24 hrs by broth microdilution method; type: functional
Escherichia coli [43] = test: Induction of cytoplasmic membrane depolarization in Escherichia coli UB1005 at 2 uM by DiSC3-5 dye based fluorescence method; type: organism-based
Lipopolysaccharide (LPS) = test: Displacement of BODIPY-TR-cadaverine from Escherichia coli O111:B4 LPS by spectrofluorophotometric method
Escherichia coli [44] = test: Resistance index, ratio of MIC for antibacterial activity against Escherichia coli ATCC 25922 treated over 35 serial passage by sequential passaging method to MIC for antibacterial activity against Escherichia coli ATCC 25922 incubated for 18 to 24 hrs by broth microdilution method; type: functional
Escherichia coli [45] = test: Inhibition of swimming motility of Escherichia coli ATCC 25922 at 1 to 4 uM after 16 hrs; type: functional, organism-based
Acinetobacter baumannii [46] = test: Antibacterial activity against Acinetobacter baumannii AB1901 clinical isolate incubated for 18 to 24 hrs by broth microdilution method; type: functional
Escherichia coli [47] = test: Induction of outer membrane permeabilization in Escherichia coli UB1005 assessed as increase in NPN uptake at 0.5 to 4 uM by spectrofluorophotometric assay; type: organism-based
Pseudomonas aeruginosa = test: Antibacterial activity against Pseudomonas aeruginosa PAO1 at sub-MIC treated over 35 serial passages by resistant development assay; type: functional, organism-based

CC(C)C[C@H](NC(=O)[C@H](CCCNC(=N)N)NC(=O)[C@H](CCCCN)NC(=O)[C@H](CCCNC(=N)N)NC(=O)[C@@H](NC(=O)[C@H](CCCCN)NC(=O)[C@H](CCCCN)NC(=O)[C@H](CCCNC(=N)N)NC(=O)[C@H](CC(C)C)NC(=O)[C@H](CCCNC(=N)N)NC(=O)[C@@H](N)CCCNC(=N)N)[C@@H](C)O)C(=O)N[C@@H](CCCCN)C(N)=O (H-RRLRKKTRKRLK-NH2)
MIC (Escherichia coli [1]): > 128 µM | MIC (Staphylococcus aureus [2]): > 128 µM | MIC (Escherichia coli [3]): > 128 µM | MIC (Escherichia coli [4]): 64 µM (≈ 105 µg/mL) | MIC (Escherichia coli [5]): > 128 µM | MIC (Staphylococcus aureus [6]): > 128 µM | MIC (Escherichia coli [7]): > 128 µM | MIC (Staphylococcus aureus [8]): > 128 µM | MHC (Erythrocyte): > 128 µM | MIC (Staphylococcus aureus [9]): > 128 µM | MIC (Staphylococcus aureus [10]): > 128 µM | MIC (Escherichia coli [11]): > 128 µM | MIC [12]: > 128 µM | MIC (Staphylococcus aureus [13]): > 128 µM | MIC (Escherichia coli [14]): > 128 µM | MIC (Salmonella typhimurium): > 128 µM | MIC (Staphylococcus aureus [15]): > 128 µM | MIC (Staphylococcus aureus [16]): > 128 µM | MIC (Staphylococcus aureus [17]): > 128 µM | MIC (Staphylococcus aureus [18]): > 128 µM | MIC (Staphylococcus aureus [19]): > 128 µM | MIC (Staphylococcus aureus [20]): > 128 µM | MIC (Staphylococcus aureus [21]): > 128 µM | MIC (Escherichia coli [22]): > 128 µM | MIC (Escherichia coli [23]): > 128 µM | MIC (Escherichia coli [24]): > 128 µM | MIC (Staphylococcus aureus [25]): > 128 µM | MIC (Escherichia coli [26]): > 128 µM | MIC (Escherichia coli [27]): > 128 µM | MIC (Staphylococcus aureus [28]): > 128 µM | MIC (Escherichia coli [29]): > 128 µM | MIC (Escherichia coli [30]): > 128 µM | selectivity ratio [31]: 1.26 | MIC (Staphylococcus aureus [32]): > 128 µM | MIC (Staphylococcus aureus [33]): > 128 µM | viability at 24 h [34]: ≥ 70% | MIC (Escherichia coli [35]): > 128 µM | MIC (Escherichia coli [36]): > 128 µM | MIC (Escherichia coli [37]): > 128 µM | MIC (Staphylococcus aureus [38]): > 128 µM | MIC (Escherichia coli [39]): > 128 µM | MIC (Staphylococcus aureus [40]): > 128 µM | MIC (Escherichia coli [41]): > 128 µM

CC[C@H](C)[C@H](NC(=O)CN)C(=O)NCC(=O)N[C@@H](C)C(=O)N[C@H](C(=O)N[C@@H](CC(C)C)C(=O)N[C@@H](CCCCN)C(=O)N[C@H](C(=O)N[C@@H](CC(C)C)C(=O)N[C@H](C(=O)N[C@H](C(=O)NCC(=O)N[C@@H](CC(C)C)C(=O)N1CCC[C@H]1C(=O)N[C@@H](C)C(=O)N[C@@H](CC(C)C)C(=O)N[C@H](C(=O)N[C@@H](CO)C(=O)N[C@@H](Cc1c[nH]c2ccccc12)C(=O)N[C@H](C(=O)N[C@@H](CCCCN)C(=O)N[C@@H](CCCNC(=N)N)C(=O)N[C@@H](CCCCN)C(=O)N[C@@H](CCCNC(=N)N)C(=O)N[C@@H](CCC(N)=O)C(=O)N[C@@H](CCC(N)=O)C(N)=O)[C@@H](C)CC)[C@@H](C)CC)[C@@H](C)O)[C@@H](C)O)C(C)C)C(C)C [MELITTIN]
MIC (Acinetobacter baumannii [42]): 2 µM (≈ 5.69 µg/mL) | Activity (Escherichia coli [43]): Active | MHC (Erythrocyte): 0.25 µM | Activity (Lipopolysaccharide (LPS)): Dose-dependent effect | Ratio (Escherichia coli [44]): 4 | inhibition (Escherichia coli [45]): Active | MIC (Acinetobacter baumannii [46]): 2 µM (≈ 5.69 µg/mL) | Activity (Escherichia coli [47]): Active | Activity (Pseudomonas aeruginosa): inactive
